Laboratory results published in patent US20260344673A1, “A SOLID FORM FOR PREPARATION OF AN AQUEOUS DISPERSION, AQUEOUS DISPERSION, STABLE CONCENTRATE, COMBINED AQUEOUS DISPERSION, AND USES THEREOF” (priority 2022, published 2026).

Columns and labels:
Colletotrichum spp. = test: Field trial soya, efficacy against Colletotrichum spp.; assay type: in vivo; settings: field conditions, tank-mix, control (no treatment) 4.21
Zymoseptoria tritici = test: Field trial winter wheat, efficacy against Zymoseptoria tritici; assay type: in vivo; settings: field conditions, tank-mix, control (no treatment) 4.68
Description: (§1) The rates of application (use) of the composition of the present invention (MFA) vary according to type of use, type of crop, the specific active ingredient in the combination, but is such that the active ingredient in the combination is an effective amount to provide the desired action (such as disease control). The application rate of the composition for a given set of conditions can readily be determined by trials.
(§2) Field trials were conducted in Poland according to approved EPPO guidelines: PP 1/135(4), PP 1/152(4), PP 1/181(4) (general), PP 1/1(4) (sugar beet), PP 1/28 (3), PP 1/26(4) (winter wheat), PP 1/78(4) (oilseed), PP1/263 (1), PP1/16 (3) (strawberry), PP 1/2 (5), PP 1/263 (1) (potato). The spray volumes were in line with farmers' practice, varying between 200-300 l/ha. The applications were processed as per the EPPO guideline specific for each crop.

Phoma lingam = test: Field trial oilseed rape, efficacy against Phoma lingam; assay type: in vivo; settings: field conditions, tank-mix, control (no treatment) 4.18
Description: as §1, §2

soya = test: Field trial soya, plant biomass and yield parameters; assay type: in vivo; settings: field conditions; for Bulk density: control 0.728; for Yield: control 37.41; for Biomass: control 190.0; for The Thousand Grain Weight (TGW): control 205.3
Description: as §2

winter wheat = test: Field trial winter wheat, plant biomass and yield parameters; assay type: in vivo; settings: field conditions; for Bulk density: control 0.67; for The Thousand Grain Weight (TGW): control 41.90; for Yield: control 76.50; for Biomass: control 157.50
Description: as §2

Sclerotinia sclerotiorum [1] = test: Field trial oilseed rape, efficacy against Sclerotinia sclerotiorum; assay type: in vivo; settings: field conditions, tank-mix, control (no treatment) 6.28
Description: as §1, §2

Peronospora manshurica = test: Field trial soya, efficacy against Peronospora manshurica; assay type: in vivo; settings: field conditions, tank-mix, control (no treatment) 5.66
Description: as §1, §2

oilseed rape = test: Field trial oilseed rape, plant biomass and yield quality/quantity parameters; assay type: in vivo; settings: field conditions; for The Thousand Grain Weight (TGW): Tables 31-33, control 5.64; for Bulk density: control 0.65; for Yield: control 25.49; for Biomass: control 90.00
Description: as §2

seeds = test: Seed treatment test: germination rate, infected seeds, shoot and root biomass (all seed species); assay type: in vivo; settings: applied alone and in mixtures with seed treatment fungicides
Description: The method of treating seeds according to the embodiment of the present inventions can be characterised in that in the treatment seed with 30 g checked product with and without combination with fungicidal seed treatment products per 100 kg of seed are employed. The results were assessed due to EPPO: PP1/152(4), PP 1/19 (5), PP 1/135(4) and PP1/181(4) Standards.
Seed treatment test was conducted according to International Rules for Seed Testing 2018 (ISTA) under laboratory conditions using sterile paper as a growing media. The tests were continued for 14 days. As a result, the germination rate and the number of infected seeds were calculated. The biomass (shoots and roots) was collected and measured accordingly.

Phytium ultimum = test: Kirby-Bauer disk diffusion test, Phytium ultimum
Description: (§3) The performance of the embodiments of the present inventions and their mixtures enriched with millbase (MFA) was analysed against the appropriate reference substance, i.e., a commercial product containing the analogue active substance with the same concentration. The prepared solutions were applied on the paper antibiograms. Then the soaked antibiograms were placed on the Petri Dishes (dish diameter 90 mm) with the growth medium for fungal pathogens V8. Composition of V8: agar, calcium carbonate and multi-vegetable juice. 3 fragments of mycelium of the tested pathogen (5×5 mm) were transplanted onto the prepared medium. As a result, the zones where the fungal growth was inhibited have been measured and compared respectively with the control sample and the analogue active substance sample.
(§4) Assessment was carried out by determining the infested area of the Petri dish in %. These percentages have been converted into efficacy (W) according to Abbot's formula as follows: W=(1−α/β)×100 • where: • α—corresponds to the mycelium/bacterial growth of each tested sample [%], • β—corresponds to the mycelium/bacterial growth in control sample [%].
(§5) In order to estimate if the combined action effect with the commercial fungicide, the W parameter of the mixture was compared with W parameter for particular commercial fungicide solo. Where W=0 the efficacy of the control sample (whole Petri dish covered with mycelium), and W=100 is when no mycelium growth observed.

Septoria nodorum (1291) = test: Kirby-Bauer disk diffusion test, Septoria nodorum (1291)
Description: as §3, §4, §5

[2] = test system: Colletotrichum gloeosporioides; test: Kirby-Bauer disk diffusion test, Colletotrichum gloeosporioides; settings: Colletotrichum gloeosporioides
Description: (§6) The microbiological tests were carried out by applying Kirby-Bauer Disk Diffusion Susceptibility Test Protocol for antimicrobial activity. It is based on the formation of a concentration gradient in the growth medium during the diffusion of the active substance from the antibiogram disc (Kirby-Bauer method).
as §3, §4, §5

Monilinia fructigena = test: Kirby-Bauer disk diffusion test, Monilinia fructigena
Description: as §3, §4, §5

Fusarium oxysporum = test: Kirby-Bauer disk diffusion test, Fusarium oxysporum; settings: Fusarium oxysporum
Description: as §6, §3, §4, §5

Septoria tritici = test: Kirby-Bauer disk diffusion test, Septoria tritici
Description: as §3, §4, §5

Botrytis cinerea = test: Kirby-Bauer disk diffusion test, Botrytis cinerea
Description: as §3, §4, §5

Fusarium equiseti = test: Kirby-Bauer disk diffusion test, Fusarium equiseti
Description: as §3, §4, §5

Phytophthora cactorum = test: Kirby-Bauer disk diffusion test, Phytophthora cactorum; set-up: % mycelium growth relative to the control: concentration or dose not given beside the values
Description: as §3, §4, §5

Erwinia sp. = test: Kirby-Bauer disk diffusion test, bacterial pathogens (inhibition zones, halo effect); settings: Nutrient Agar, tank-mixes; for Efficacy %: control 0.00; for Erwinia sp. bacterial growth: control 3.5 mm
Verticillium longisporum = test: Kirby-Bauer disk diffusion test, Verticillium longisporum
Description: as §3, §4, §5

Venturia inaegualis = test: Kirby-Bauer disk diffusion test, Venturia inaequalis; settings: Venturia inaegualis
Description: as §6, §3, §4, §5

Phytophthora megasperma = test: Kirby-Bauer disk diffusion test, Phytophthora megasperma; settings: Phytophthora megasperma
Description: as §6, §3, §4, §5

Sclerotinia sclerotiorum [3] = test: Kirby-Bauer disk diffusion test, Sclerotinia sclerotiorum
Description: as §3, §4, §5

[4] = test system: Alternaria infectoria/alternata; test: Kirby-Bauer disk diffusion test, Alternaria infectoria/alternata
Description: as §3, §4, §5

spring barley [5] = settings: compared with uninoculated plots; Montana 1981 and 1982; cited from earlier work
spring barley [6] = settings: Montana 1981 and 1982; cited from earlier work
Cochliobolus sativus = settings: Montana 1981 and 1982; cited from earlier work
[7] = test system: selected pathogens (fungi); settings: vs commercial fungicide

Compound: CC1(C)CCC(Cc2ccc(Cl)cc2)C1(O)Cn1cncn1 (centres unmarked) [Metconazole (90)]
- Efficacy Colletotrichum spp. (Colletotrichum spp.): 2.31 scale 0-10
- Efficacy Zymoseptoria tritici (Zymoseptoria tritici): 3.11 scale 0-10
- Efficacy Phoma lingam (Phoma lingam): 2.99 scale 0-10
- Bulk density (soya): 0.724 kg/L
- Yield (soya): 32.86 dt/ha
- Biomass (soya): 146.7 dt/ha
- The Thousand Grain Weight (TGW) (soya): 207.0 g
- Bulk density (winter wheat): 0.67 kg/L
- The Thousand Grain Weight (TGW) (winter wheat): 46.20 g
- Yield (winter wheat): 78.95 dt/ha
- Biomass (winter wheat): 172.50 dt/ha
- Efficacy Sclerotinia sclerotiorum (Sclerotinia sclerotiorum [1]): 4.11 scale 0-10
- Efficacy Peronospora manshurica (Peronospora manshurica): 3.13 scale 0-10
- The Thousand Grain Weight (TGW) (oilseed rape): 6.13 g
- Bulk density (oilseed rape): 0.67 kg/L
- Yield (oilseed rape): 33.63 dt/ha
- Biomass (oilseed rape): 152.50 dt/ha

Compound: O=C(O)CN(CCN(CC(=O)O)CC(=O)O)CC(=O)O.[Zn+2] [zinc chelated by EDTA, zinc chelated by EDTA (ethylenediamine tetraacetic acid)]
- biomass increase (shoots and roots) (seeds): neutral to positive influence
- germination percentage (seeds): neutral to positive influence

Compound: COC=C(C(=O)OC)c1ccccc1Oc1cc(Oc2ccccc2C#N)ncn1 [Azoxystrobin (250)]
- Efficacy Colletotrichum spp. (Colletotrichum spp.): 1.76 scale 0-10
- % mycelium growth relative to the control (Phytium ultimum; V8 medium): 100%
- mycelium growth (Phytium ultimum; V8 medium, control 8.6 cm): 8.6 cm
- EFFICACY W (Abbot) (Phytium ultimum; control W=0, no growth W=100): 0
- % mycelium growth relative to the control (Septoria nodorum (1291); V8 medium): 30%
- mycelium growth (Septoria nodorum (1291); V8 medium, control 5.4 cm): 1.6 cm
- EFFICACY W (Abbot) (Septoria nodorum (1291); control W=0, no growth W=100): 70
- % mycelium growth relative to the control ([2]; V8 medium): 50%
- mycelium growth ([2]; V8 medium, control 5.4 cm): 2.7 cm
- EFFICACY W (Abbot) ([2]; control W=0, no growth W=100): 50
- Efficacy Zymoseptoria tritici (Zymoseptoria tritici): 4.32 scale 0-10
- % mycelium growth relative to the control (Monilinia fructigena; V8 medium): 0%
- mycelium growth (Monilinia fructigena; V8 medium, control 5.4 cm): 0 cm
- EFFICACY W (Abbot) (Monilinia fructigena; control W=0, no growth W=100): 100
- % mycelium growth relative to the control (Fusarium oxysporum; V8 medium): 100%
- mycelium growth (Fusarium oxysporum; V8 medium, control 8.6 cm): 8.6 cm
- EFFICACY W (Abbot) (Fusarium oxysporum; control W=0, no growth W=100): 0
- Efficacy Phoma lingam (Phoma lingam): 3.42 scale 0-10
- Bulk density (soya): 0.627 kg/L
- Yield (soya): 38.26 dt/ha
- Biomass (soya): 156.7 dt/ha
- The Thousand Grain Weight (TGW) (soya): 204.0 g
- % mycelium growth relative to the control (Septoria tritici; V8 medium): 0%
- mycelium growth (Septoria tritici; V8 medium, control 1.9 cm): 0 cm
- EFFICACY W (Abbot) (Septoria tritici; control W=0, no growth W=100): 100
- % mycelium growth relative to the control (Botrytis cinerea; V8 medium): 100%
- mycelium growth (Botrytis cinerea; V8 medium, control 8.6 cm): 8.6 cm
- EFFICACY W (Abbot) (Botrytis cinerea; control W=0, no growth W=100): 0
- % mycelium growth relative to the control (Fusarium equiseti; V8 medium): 77%
- mycelium growth (Fusarium equiseti; V8 medium, control 8.6 cm): 6.6 cm
- EFFICACY W (Abbot) (Fusarium equiseti; control W=0, no growth W=100): 23
- % mycelium growth relative to the control (Phytophthora cactorum; V8 medium): 33%
- mycelium growth (Phytophthora cactorum; V8 medium, control 5.4 cm): 1.8 cm
- EFFICACY W (Abbot) (Phytophthora cactorum; control W=0, no growth W=100): 67
- Efficacy % (Erwinia sp.): 22.86%
- Erwinia sp. bacterial growth (Erwinia sp.): 2.7 mm
- Bulk density (winter wheat): 0.63 kg/L
- The Thousand Grain Weight (TGW) (winter wheat): 43.60 g
- Yield (winter wheat): 66.33 dt/ha
- Biomass (winter wheat): 147.50 dt/ha
- % mycelium growth relative to the control (Verticillium longisporum; V8 medium): 56%
- mycelium growth (Verticillium longisporum; V8 medium, control 3.9 cm): 2.2 cm
- EFFICACY W (Abbot) (Verticillium longisporum; control W=0, no growth W=100): 44
- Efficacy Sclerotinia sclerotiorum (Sclerotinia sclerotiorum [1]): 4.32 scale 0-10
- Efficacy Peronospora manshurica (Peronospora manshurica): 3.32 scale 0-10
- % mycelium growth relative to the control (Venturia inaegualis; V8 medium): 0%
- mycelium growth (Venturia inaegualis; V8 medium, control 2.9 cm): 0 cm
- EFFICACY W (Abbot) (Venturia inaegualis; control W=0, no growth W=100): 100
- % mycelium growth relative to the control (Phytophthora megasperma; V8 medium): 70%
- mycelium growth (Phytophthora megasperma; V8 medium, control 5.4 cm (8.6 cm in Table 25)): 3.8 cm
- EFFICACY W (Abbot) (Phytophthora megasperma; control W=0, no growth W=100): 30
- % mycelium growth relative to the control (Sclerotinia sclerotiorum [3]; V8 medium): 100%
- mycelium growth (Sclerotinia sclerotiorum [3]; V8 medium, control 8.6 cm): 8.6 cm
- EFFICACY W (Abbot) (Sclerotinia sclerotiorum [3]; control W=0, no growth W=100): 0
- % mycelium growth relative to the control ([4]; V8 medium): 40%
- mycelium growth ([4]; V8 medium, control 8.6 cm): 3.4 cm
- EFFICACY W (Abbot) ([4]; control W=0, no growth W=100): 60
- The Thousand Grain Weight (TGW) (oilseed rape): 5.34 g
- Bulk density (oilseed rape): 0.65 kg/L
- Yield (oilseed rape): 25.54 dt/ha
- Biomass (oilseed rape): 112.50 dt/ha

Compound: C=CCOC(Cn1ccnc1)c1ccc(Cl)cc1Cl (centres unmarked) [imazalil]
- plant emergence (spring barley [5]): increased emergence

Compound: OC(c1ccc(F)cc1)(c1cncnc1)c1ccccc1Cl (centres unmarked) [Nuarimol]
- grain yield (spring barley [6]): did not increase grain yield
- control of common root rot / disease ratings (Cochliobolus sativus): statistically significant in disease reduction
- plant emergence (spring barley [5]): increased emergence

Compound: N#Cc1c[nH]cc1-c1cccc2c1OC(F)(F)O2 [Fludioxonil, fludioxonil]
- effectiveness in reducing the development of pathogens (in words) [7]: completely inhibited fungal growth

Compound: CCCN(CCOc1c(Cl)cc(Cl)cc1Cl)C(=O)n1ccnc1 [Prochloraz (450)]
- Efficacy Colletotrichum spp. (Colletotrichum spp.): 2.79 scale 0-10
- Efficacy Zymoseptoria tritici (Zymoseptoria tritici): 3.37 scale 0-10
- Efficacy Phoma lingam (Phoma lingam): 3.11 scale 0-10
- Bulk density (soya): 0.743 kg/L
- Yield (soya): 41.37 dt/ha
- Biomass (soya): 176.7 dt/ha
- The Thousand Grain Weight (TGW) (soya): 211.5 g
- Efficacy % (Erwinia sp.): 0.00%
- Erwinia sp. bacterial growth (Erwinia sp.): 3.5 mm
- Bulk density (winter wheat): 0.65 kg/L
- The Thousand Grain Weight (TGW) (winter wheat): 46.90 g
- Yield (winter wheat): 71.51 dt/ha
- Biomass (winter wheat): 157.50 dt/ha
- Efficacy Sclerotinia sclerotiorum (Sclerotinia sclerotiorum [1]): 4.17 scale 0-10
- Efficacy Peronospora manshurica (Peronospora manshurica): 3.37 scale 0-10
- The Thousand Grain Weight (TGW) (oilseed rape): 5.72 g
- Bulk density (oilseed rape): 0.68 kg/L
- Yield (oilseed rape): 30.06 dt/ha
- Biomass (oilseed rape): 125.00 dt/ha
